Patent publication EP0341154A2, “Analogues of L-fucose, process for their preparation, their application for the preparation of glycals, anthracycline derivatives of the glycals and the use of the anthracyclines as medicaments” (priority 1988, dated 1989)

How the values were obtained:
[1] = tested on: A549; test: MTT reduction proliferation test, 72 h incubation; format: cell-based; details: A 549 cells
Method: (§1) Des cellules tumorales L1210, A549 et HT29, à une concentration de 5.10³/ml dans un milieu RPMI, sont incubées dans des plaques de microtitration contenant 96 puits, pendant 72 heures (37°C, 5 % CO₂, 95 % d'humidité relative) avec différentes concentrations de chacun des glycosides (anthracyclines) conformes à l'invention.
(§2) Les témoins consistent en cellules tumorales exposées à un milieu de culture. Quatre puits sont préparés pour chaque concentration en glycoside et pour le témoin. Après 65 heures, 50 µl de MTT (2,5 mg/ml dans du PBS) sont ajoutés.
(§3) Le MTT sera réduit, en présence de cellules vivantes en un colorant formazan rouge insoluble. Après 7 à 24 heures d'incubation supplémentaire, le surnageant est enlevé. Le colorant formazan est solubilisé par l'addition de 100 µl de DMSO dans chaque puits, suivie d'une agitation douce.
(§4) L'extinction est mesurée pour chaque puits, à 492 nm (photomètre Multiscan 340 CC Fa. Flow).
(§5) Les résultats sont exprimés comme le rapport de l'extinction après incubation avec les glycosides sur l'extinction obtenue avec les témoins. Le coefficient de variation est inférieur à 15 %.

[2] = tested on: HT29; test: MTT reduction proliferation test, 72 h incubation; format: cell-based; details: HT 29 cells
Method: as §1, §2, §3, §4, §5

[3] = tested on: L1210; test: MTT reduction proliferation test, 72 h incubation; format: cell-based; details: L1210 cells
Method: as §1, §2, §3, §4, §5

[4] = tested on: L1210; test: In vivo antitumour effect on L1210 ascites leukemia in mice; design: species or system souris BDF1; details: for L1210 T/C %: 3 x 1.p./ 1.p. Q3D, BDF1 mice
Method: Un liquide d'ascite est prélevé dans les conditions aseptiques chez des souris DBA2 (femelle, 18 - 20 g) le septième jours après l'implantation.
L'ascite est lavée trois fois avec du PBS, comptée et finalement diluée dans du PBS, de manière à obtenir 10⁶ cellules/0,2 ml.
10⁶ cellules dans 0,2 ml de P BS sont injectées dans le peritoine de souris DBA2 pour la propagation de la lignée cellulaire.
10⁶ cellules dans 0,2 ml de PBS sont injectés intrapériotonéalement à des souris BDF1 (femelle 18 - 20 g), 6 animaux/group sont utilisés pour chaque concentration de substance et pour le contrôle.
• a) les animaux sont pesés le premier jour et le cinquième jour après l'administration du médicament. Une perte de poids supérieure à 20 % le cinquième jour est utilisée comme indicateur d'effet toxique du produit. • b) à la fin de l'expérience, (mort de tous les animaux ou soixantième jour de l'essai), le temps moyen de survie des animaux, dans tous les groupes ayant plus de 65 % de survivants au cinquième jour, est évalué selon des procédures standard.
Les animaux survivants au soixantième jour sont considérés comme des survivants de longue durée (LTS : Long Time Survivors) et sont répertoriés séparément.
A partir du temps de survie moyen des groupes traités (MSTT) et des groupes contrôle (MSTC), l'effet antitumoral (T/C) est évalué en fonction de la formule suivante : [formula]
Les valeurs T/C de plus de 125 % sont considé-rées comme des indicateurs d'un effet antitumoral significatif.

[5] = Acute toxicity in mice (Litchfield Wilcoxon); format: in vivo, souris NMRI; details: 3 x i.p., NMRI mice, deaths counted after two weeks
From the text: La substance à tester est injectée à des souris NMRI selon le protocole tel que précisé dans le Tableau IV, ci-après.
Après deux semaines, le nombre total d'animaux décédés dans chaque groupe est calculé et les DL₅₀ sont évaluées en utilisant la méthode de Litchfield Wilcoxon.

Structure (SMILES) | CI₅₀ TEST AU MTT A 549 [1] | CI₅₀ TEST AU MTT HT 29 [2] | CI₅₀ TEST AU MTT L1210 [3] | L1210 T/C % ([4]; 10.00 mg/kg/Inj.) | L1210 T/C % ([4]; 13.30 mg/kg/Inj.) | L1210 T/C % ([4]; 17.70 mg/kg/Inj.) | Morts toxiques ([4]; 17.70 mg/kg/Inj., 6 animals/group) | DL₅₀ [5]
CCCCC1OC(OC2CC(O)(C(C)=O)Cc3c(O)c4c(c(O)c32)C(=O)c2c(OC)cccc2C4=O)CC(OC(C)=O)C1OC(C)=O (centres unmarked) [20 c, acétoxy-3′ O-acétyl-4′ désamino-3′ propyl-6′ daunorubicine] | > 1 µg/mL | > 1 µg/mL | > 1 µg/mL | – | – | – | – | –
CCC1(O)CC(OC2CC(OC(C)=O)C(OC(C)=O)C(C)O2)c2c(O)c3c(c(O)c2C1O)C(=O)c1cccc(O)c1C3=O [21 a, O-(di-O-acétyl-3′,4′ didésoxy-2′,6′-α-L-thréo-hexopyrannosyl)-7 β-Rhodomycinone] | 0,086 µg/ml | 0,038 µg/ml | 0,03 µg/ml | 134% | 152% | 146% | 1/6 | > 21.3
CC[C@@H]1O[C@@H](O[C@H]2C[C@](O)(CC)[C@H](O)c3c(O)c4c(c(O)c32)C(=O)c2c(O)cccc2C4=O)C[C@H](OC(C)=O)[C@@H]1OC(C)=O [21 b, O-(di-O-acétyl-3′-4′ tridésoxy-2′,6′,7′-α-L-thréo-heptopyrannosyl)-7 β-Rhodomycinone] | 0,46 µg/ml | > 1 µg/mL | 0,51 µg/ml | – | – | – | – | –
CCCCC[C@@H]1O[C@@H](O[C@H]2C[C@](O)(CC)[C@H](O)c3c(O)c4c(c(O)c32)C(=O)c2c(O)cccc2C4=O)C[C@H](OC(C)=O)[C@@H]1OC(C)=O [21 c, O-(di-O-acétyl-3′,4′hexadésoxy-2′,6′,7′,8′,9′,10′-α-L-thréodécapyrannosyl)-7 β-Rhodomycinone] | > 1 µg/mL | > 1 µg/mL | > 1 µg/mL | – | – | – | – | –
CC[C@@H]1O[C@@H](O[C@H]2C[C@](O)(CC)[C@H](O[C@@H]3C[C@H](OC(C)=O)[C@H](OC(C)=O)[C@H](CC)O3)c3c(O)c4c(c(O)c32)C(=O)c2c(O)cccc2C4=O)C[C@H](OC(C)=O)[C@@H]1OC(C)=O [22 b, Di-O-(di-O-acétyl-3′,4′tridésoxy-2′,6′,7′-α-L-thréoheptopyrannosyl)-7,10 β-Rhodomycinone] | > 1 µg/mL | > 1 µg/mL | > 1 µg/mL | – | – | – | – | –
CCCCCC1OC(OC2CC(O)(CC)C(OC3CC(OC(C)=O)C(OC(C)=O)C(CCCCC)O3)c3c(O)c4c(c(O)c32)C(=O)c2c(O)cccc2C4=O)CC(OC(C)=O)C1OC(C)=O [22 c, di-O-(di-O-acétyl-3′,4′ hexadésoxy-2′,6′,7′,8′,9′, 10′-α-L-thréodécapyrannosyl)-7,10 β-Rhodomycinone] | > 1 µg/mL | > 1 µg/mL | > 1 µg/mL | – | – | – | – | –
